Experimental data as given in publication PMC3547732 (Chemistry Central Journal, 2012).

Experiments:
[1] = Enthalpy of solution by microreaction calorimetry; assay type: physicochemical; details: for Molar enthalpy of solution in its own solvent, Solvates (ΔsolH^2): each solvate in its own solvent of solvation; for Molar enthalpy of solution in its own solvent, Solvates (ΔsolH^2) / Molar enthalpy of solution, Methanol ΔsolH (methanol) / Molar enthalpy of solution of Atorvastatin Calcium (ATC) (ΔsolH^1) in the solvent of the solvate: 25°C; for Enthalpy of solvation ΔsolvH: calculated by equation 3 from enthalpies of solution of drug and solvate in the solvent of solvation
Description: Molar enthalpy of solution (ΔHsol) was determined in phosphate buffer (pH8) as well as in methanol.
In order to determine the enthalpy associated with the solvation process the enthalpy of solution of a particular solvate was determined in its own solvent.
(3) ΔsolyH=ΔsolH^1−ΔsolH^2
Calorimetric studies were performed on Microreaction calorimeter obtained from Thermal Hazards Technology, UK. Two different solvents, viz, the phosphate buffer (pH 2) and methanol were used to determine the enthalpy of solution and the measurements were performed at 25°C. The size of sample used in this study ranged from 10 to 20 mg and was weighed (Sartorius Model CP225D) into a cylindrical glass tube covered with parafilm on one side. This cylindrical tube was submerged into the ampoule containing the solvent. A plunger with a cap was put from the open end of the tube. The same solvent was put into the reference ampoule. These were put into the sample and reference holes until both rest on the base of the holes. The apparatus was maintained at constant temperature at 25°C (±0.0005°C). The parafilm was shattered mechanically by means of plunger.

[2] = Desolvation of solvates by DSC and TGA; assay type: physicochemical; details: for Desolvation temperature: DSC desolvation endotherm maximum, 10°C/min; for Enthalpy of desolvation, ΔdesolvH calculated from equation 4: calculated from enthalpies of solution, heat capacities and enthalpy of vapourization; for Enthalpy of desolvation per mole of solvent (binding energy): equation 1 from DSC desolvation enthalpy and TGA mass loss
Text: The desolvation temperatures account for the stability of solvates as the desolvation temperature in all these forms is much higher than the boiling point of the corresponding solvent. The quantitative estimate of the stability of these solvates is established by determining the binding energy for the solvents in all the solvates using equation 1 where the percent mass loss measured over the TG desolvation step of each solvate (ΔmS%) was related to the enthalpy change calculated over the corresponding DSC desolvation endotherm (ΔHSexp).
(1) ΔHS=ΔHSexp×100Δms%×Ms
where ΔHS (J mol^-1) is the enthalpy of desolvation (or binding energy) per mole of the bound solvent, MS is the molecular mass of the solvent.
(4) ΔdesolyH=ΔsolnH^2−ΔsolnH^1−ΔCPTdesoly−25+1/2ΔyapH
. A mass between 2–8 mg was taken into the aluminium pan, covered with lid and sealed. DSC curves were obtained under a nitrogen purge of 50 mL per minute at a heating rate of 10°C per minute with the temperature range from 50-350°C.
Loss of solvent from the samples was characterized by TGA obtained by TA Instruments-Waters LLC, USA. TGA traces were recorded at heating rates of 10°C per minute under a nitrogen purge of 50 ml per minute. Samples with masses between 1–10 mg were analyzed using platinum pan. Mass loss (%) was calculated based on the mass of the original sample.

[3] = tested on: Triton induced hyperlipidemia; test: Hypolipidemic activity in Triton induced hyperlipidemia in rats; assay type: in vivo, male Wistar rats; details: for Total Cholesterol / Triglyceride: Triton treated rats, 30 mg/kg oral gavage 2 h before Triton i.p., plasma 18 h after triton injection; for lipid lowering in triton treated rats (total cholesterol and TG), in words: 30 mg/kg oral gavage
Description: The rats were housed under optimal laboratory conditions, maintained on 12 h light and dark cycle and had free access to food (Hindustan Lever Products, Kolkata, India) and water. Animals were acclimatized to laboratory conditions before the tests. All experiments were carried out between 0900 and 1700 h. The experimental protocols were approved by the Institutional Animal Ethics Committee and conducted according to the Indian National Science Academy guidelines for the use and care of animals. Fifty five male Wistar rats were divided into the following 11 groups containing 5 animals in each group: Atrovastain and various solvates were freshly suspended in 0.5% carboxymethyl cellulose and administered by oral gavage. Two hours later, all groups except control animals received intraperitonial injection of Triton (100 mg/kg). Eighteen hours after triton injection, blood was collected from tail vein. Plasma was separated and stored at −20°C for further biochemical analysis. Total cholesterol and triglyceride were analyzed in plasma samples using diagnostic kits as per manufacturer instructions.

[4] = Enthalpy of solution by microreaction calorimetry; assay type: physicochemical; details: 25°C

Structure (SMILES)	Molar enthalpy of solution in its own solvent, Solvates (ΔsolH^2) [1]	Molar enthalpy of solution, Methanol ΔsolH (methanol) [1]	Desolvation temperature [2]	Enthalpy of desolvation, ΔdesolvH calculated from equation 4 [2]	Enthalpy of desolvation per mole of solvent (binding energy) [2]	Enthalpy of desolvation, ΔdesolvH from DSC [2]	Total Cholesterol [3]	Triglyceride [3]	Molar enthalpy of solution, Phosphate buffer (pH8) ΔsolH [4]	Enthalpy of solvation ΔsolvH [1]	lipid lowering in triton treated rats (total cholesterol and TG), in words [3]	further results
CC(C)c1c(C(=O)Nc2ccccc2)c(-c2ccccc2)c(-c2ccc(F)cc2)n1CC[C@@H](O)C[C@@H](O)CC(=O)[O-].CC(C)c1c(C(=O)Nc2ccccc2)c(-c2ccccc2)c(-c2ccc(F)cc2)n1CC[C@@H](O)C[C@@H](O)CC(=O)[O-].CO.[Ca+2] [Solvate V]	0.507 kcal/mol	0.507 kcal/mol	70.15 °C	6.381 kcal/mol	13.12 kcal/mol	6.279 kcal/mol	198 mg/dL	170 mg/dL	3.85 kJ mol^-1	–	–	–
CC(C)(C)O.CC(C)c1c(C(=O)Nc2ccccc2)c(-c2ccccc2)c(-c2ccc(F)cc2)n1CC[C@@H](O)C[C@@H](O)CC(=O)[O-].CC(C)c1c(C(=O)Nc2ccccc2)c(-c2ccccc2)c(-c2ccc(F)cc2)n1CC[C@@H](O)C[C@@H](O)CC(=O)[O-].CC(C)c1c(C(=O)Nc2ccccc2)c(-c2ccccc2)c(-c2ccc(F)cc2)n1CC[C@@H](O)C[C@@H](O)CC(=O)[O-].CC(C)c1c(C(=O)Nc2ccccc2)c(-c2ccccc2)c(-c2ccc(F)cc2)n1CC[C@@H](O)C[C@@H](O)CC(=O)[O-].[Ca+2].[Ca+2] [Solvate IV]	0.755 kcal/mol	1.3 kcal/mol	–	18.72 kcal/mol	32.655 kcal/mol	18.85 kcal/mol	204 mg/dL	168 mg/dL	11.50 kJ mol^-1	-7.574 kcal/mol	–	Desolvation temperature ([2]; listed as IV): 90(±8) °C; Desolvation temperature ([2]; listed as Solvate- IV): 83. 34 °C
C1CCOC1.CC(C)c1c(C(=O)Nc2ccccc2)c(-c2ccccc2)c(-c2ccc(F)cc2)n1CC[C@@H](O)C[C@@H](O)CC(=O)[O-].CC(C)c1c(C(=O)Nc2ccccc2)c(-c2ccccc2)c(-c2ccc(F)cc2)n1CC[C@@H](O)C[C@@H](O)CC(=O)[O-].[Ca+2] [Solvate II]	-2.706 kcal/mol	2.38 kcal/mol	–	13.66 kcal/mol	13.19 kcal/mol	12.3 kcal/mol	201 mg/dL	170 mg/dL	14.31 kJ mol^-1	-5.299 kcal/mol	–	Desolvation temperature ([2]; listed as Solvate- II): 98.89 °C; Desolvation temperature ([2]; listed as solvate II): 90(±8) °C
CC(C)O.CC(C)c1c(C(=O)Nc2ccccc2)c(-c2ccccc2)c(-c2ccc(F)cc2)n1CC[C@@H](O)C[C@@H](O)CC(=O)[O-].CC(C)c1c(C(=O)Nc2ccccc2)c(-c2ccccc2)c(-c2ccc(F)cc2)n1CC[C@@H](O)C[C@@H](O)CC(=O)[O-].CC(C)c1c(C(=O)Nc2ccccc2)c(-c2ccccc2)c(-c2ccc(F)cc2)n1CC[C@@H](O)C[C@@H](O)CC(=O)[O-].CC(C)c1c(C(=O)Nc2ccccc2)c(-c2ccccc2)c(-c2ccc(F)cc2)n1CC[C@@H](O)C[C@@H](O)CC(=O)[O-].[Ca+2].[Ca+2] [Solvate I]	-5.844 kcal/mol	0.275 kcal/mol	84.71 °C	6.197 kcal/mol	33.798 kcal/mol	5.784 kcal/mol	161 mg/dL	143 mg/dL	2.51 kJ mol^-1	-2.612 kcal/mol	performed better than pure ATC	–
CC(C)=O.CC(C)=O.CC(C)c1c(C(=O)Nc2ccccc2)c(-c2ccccc2)c(-c2ccc(F)cc2)n1CC[C@@H](O)C[C@@H](O)CC(=O)[O-].CC(C)c1c(C(=O)Nc2ccccc2)c(-c2ccccc2)c(-c2ccc(F)cc2)n1CC[C@@H](O)C[C@@H](O)CC(=O)[O-].CC(C)c1c(C(=O)Nc2ccccc2)c(-c2ccccc2)c(-c2ccc(F)cc2)n1CC[C@@H](O)C[C@@H](O)CC(=O)[O-].CC(C)c1c(C(=O)Nc2ccccc2)c(-c2ccccc2)c(-c2ccc(F)cc2)n1CC[C@@H](O)C[C@@H](O)CC(=O)[O-].CCO.[Ca+2].[Ca+2] [Solvate VI]	-2.581 kcal/mol	1.22 kcal/mol	–	12.43 kcal/mol	15.69 kcal/mol	13.56 kcal/mol	197 mg/dL	174 mg/dL	8.35 kJ mol^-1	–	–	Desolvation temperature ([2]; listed as Solvate-VI): 72.53 °C; Desolvation temperature ([2]; listed as solvate-VI): 72.5 °C
CC(C)c1c(C(=O)Nc2ccccc2)c(-c2ccccc2)c(-c2ccc(F)cc2)n1CC[C@@H](O)C[C@@H](O)CC(=O)[O-].CC(C)c1c(C(=O)Nc2ccccc2)c(-c2ccccc2)c(-c2ccc(F)cc2)n1CC[C@@H](O)C[C@@H](O)CC(=O)[O-].CCCCO.[Ca+2] [Solvate VIII]	-1.1 kcal/mol	0.136 kcal/mol	119. 5 °C	7.603 kcal/mol	14.69 kcal/mol	6.826 kcal/mol	152 mg/dL	140 mg/dL	–	-4.293 kcal/mol	performed better than pure ATC	Molar enthalpy of solution, Phosphate buffer (pH8) ΔsolH ([4]; listed as Solvate- VIII): 1.17 kJ mol^-1; Molar enthalpy of solution, Phosphate buffer (pH8) ΔsolH ([4]; listed as solvate-VIII): 2.475 kJ mol^-1
CC(C)c1c(C(=O)Nc2ccccc2)c(-c2ccccc2)c(-c2ccc(F)cc2)n1CC[C@@H](O)C[C@@H](O)CC(=O)O [ATC, Atorvastatin calcium, reference compound]	–	4.567 kcal/mol	–	–	–	–	198 mg/dL	169 mg/dL	21.89 kJ mol^-1	–	reduced lipid profile	Molar enthalpy of solution of Atorvastatin Calcium (ATC) (ΔsolH^1) in the solvent of the solvate ([1]; solvent of Solvate I (isopropyl alcohol)): -3.231 kcal/mol; Molar enthalpy of solution of Atorvastatin Calcium (ATC) (ΔsolH^1) in the solvent of the solvate ([1]; solvent of Solvate II (THF)): 2.593 kcal/mol; Molar enthalpy of solution of Atorvastatin Calcium (ATC) (ΔsolH^1) in the solvent of the solvate ([1]; solvent of Solvate III (ethanol)): 7.663 kcal/mol; Molar enthalpy of solution of Atorvastatin Calcium (ATC) (ΔsolH^1) in the solvent of the solvate ([1]; solvent of Solvate IV (t-butanol)): 8.329 kcal/mol; Molar enthalpy of solution of Atorvastatin Calcium (ATC) (ΔsolH^1) in the solvent of the solvate ([1]; solvent of Solvate V (methanol)): 3.908 kcal/mol; Molar enthalpy of solution of Atorvastatin Calcium (ATC) (ΔsolH^1) in the solvent of the solvate ([1]; solvent of Solvate VI (acetone + ethanol)): 9.847 kcal/mol; Molar enthalpy of solution of Atorvastatin Calcium (ATC) (ΔsolH^1) in the solvent of the solvate ([1]; solvent of Solvate VII (ethanol + water)): 26.886 kcal/mol; Molar enthalpy of solution of Atorvastatin Calcium (ATC) (ΔsolH^1) in the solvent of the solvate ([1]; solvent of Solvate VIII (1-butanol)): 3.193 kcal/mol
